Results as given in PubChem BioAssay AID1645865 (Buhrlage Lab, Dana-Farber Cancer Institute and Novartis …, 2021).
Calls of active or inactive are those of the source.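 How the source made its calls: active means maximal inhibition of the USP30 enzyme reaching 30% or more across the dose series; inactive means the rest.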

Biological target: Ubiquitin carboxyl-terminal hydrolase 30 (Homo sapiens) (UniProt Q70CQ3)
Test: inhibitors of ubiquitin-specific protease 30 deubiquitylating enzyme, concentration dependence, in vitro biochemical, validation of primary hits (AID 1645865)
Conditions: purified USP30, Ub-rhodamine cleavage, fluorescence, 2 h

Ubiquitin carboxyl-terminal hydrolase 30 (Homo sapiens), sequence (Q70CQ3 whole entry, looked up): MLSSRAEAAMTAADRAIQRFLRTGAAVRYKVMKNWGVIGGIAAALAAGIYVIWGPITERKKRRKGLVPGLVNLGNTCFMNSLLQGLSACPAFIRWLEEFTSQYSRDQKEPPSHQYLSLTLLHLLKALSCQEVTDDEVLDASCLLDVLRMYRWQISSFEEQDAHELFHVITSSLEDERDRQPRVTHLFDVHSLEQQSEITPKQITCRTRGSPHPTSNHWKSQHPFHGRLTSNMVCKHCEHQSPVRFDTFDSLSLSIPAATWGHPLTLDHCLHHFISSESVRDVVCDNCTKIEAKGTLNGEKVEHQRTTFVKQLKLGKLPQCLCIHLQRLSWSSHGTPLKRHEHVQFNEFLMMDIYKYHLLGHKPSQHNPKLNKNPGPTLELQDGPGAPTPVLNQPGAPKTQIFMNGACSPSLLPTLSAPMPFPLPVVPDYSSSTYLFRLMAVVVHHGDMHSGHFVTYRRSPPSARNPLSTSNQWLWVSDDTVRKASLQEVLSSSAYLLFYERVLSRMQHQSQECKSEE

IC50	SMILES
10.3 µM	Cc1cc(N2CCOCC2)nc2ccc(NC(=O)CCC(=O)Nc3ccc(F)cc3)cc12
> 50 µM (inactive)	O=c1[nH]c2ccc(S(=O)(=O)Nc3ccc(O)c4ccccc34)cc2[nH]1
> 50 µM (inactive)	C=C(NC(=O)C(=C)NC(=O)c1csc(C2=N[C@@H]3c4csc(n4)[C@H]4NC(=O)c5csc(n5)[C@H]([C@](C)(O)[C@@H](C)O)NC(=O)[C@H]5CSC(=N5)/C(=C/C)NC(=O)C([C@@H](C)O)NC(=O)c5csc(n5)C3(CC2)NC(=O)[C@H](C)NC(=O)C(=C)NC(=O)[C@H](C)NC(=O)C([C@@H](C)CC)N[C@@H]2C=Cc3c(C(C)O)cc(nc3[C@H]2O)C(=O)OC4C)n1)C(N)=O (stereo partly drawn)
> 50 µM (inactive)	C=C1Nc2ccccc2C(=O)N1c1cccc(NC(=O)c2ccc(C)c(C)c2)c1
34.1 µM	CC(C)c1ccc(NC(=O)COC(=O)c2ccc3[nH]c4c(c3c2)CCCC4)cc1
> 50 µM (inactive)	CCOc1ccc(-c2cc3nc(C4CCN(C(=O)OC(C)(C)C)CC4)c(C(=O)Nc4cc(F)ccc4F)cn3n2)cc1
2.13 µM	CCc1cc2cc3c(cc2nc1SCC(=O)Nc1cccc(C(C)=O)c1)OCO3
3.37 µM	Cc1ccc(-n2c(=O)[nH]c3c(C(N)=O)nc(-c4cccnc4)nc32)cc1
25.8 µM	CC(=O)Nc1ccc(-n2cnc(C(=O)NC(C)c3ccccc3)c2)nc1 (stereo not drawn)
> 50 µM (inactive)	CSc1nc2ncc3c(=O)n(CCc4ccccc4)ccc3n2n1
> 50 µM (inactive)	Cn1c(=O)c2c(ncn2CC(=O)NC2CCCc3ccccc32)n(C)c1=O (stereo not drawn)
> 50 µM (inactive)	COC1/C=C/OC2(C)Oc3c(C)c(O)c4c(c3C2=O)C(=O)C=C(NC(=O)/C(C)=C\C=C\C(C)C(O)C(C)C(O)C(C)C(OC(C)=O)C1C)C4=O (stereo not drawn)
31.8 µM	O=C1c2c(O)cccc2C2(Oc3cccc4cccc(c34)O2)C2OC12 (stereo not drawn)
2.18 µM	CCn1cc(-c2nc(-c3ccccc3)no2)c(=O)c2cc(F)ccc21
39.4 µM	Cc1ccc2[nH]c(=O)c(CN(CC3CCCO3)S(=O)(=O)c3ccccc3)cc2c1 (stereo not drawn)
0.356 µM	COc1ccc(OCCn2c(C3CC(=O)N(c4cccc(C)c4)C3)nc3ccccc32)cc1 (stereo not drawn)
> 50 µM (inactive)	N[C@@H](Cc1ccccc1)C(=O)N1CCC2(CC1)CN(C(=O)c1ccc(Cl)cc1)CCO2
> 50 µM (inactive)	CCOc1ccc(-n2c(C)cc(/C=C(\C#N)c3nc4ccccc4[nH]3)c2C)cc1
> 50 µM (inactive)	CN(C)S(=O)(=O)c1ccc(N2CCCC2)c(C(=O)Nc2ccc(-c3cn4ccsc4n3)cc2)c1
> 50 µM (inactive)	COc1cc2c(cc1OC)-c1cc(NCc3cc(OC)c(OC)c(OC)c3)nc(=O)n1CC2
> 50 µM (inactive)	O=C(/C=C/c1ccccc1)N1CCN(C2=NS(=O)(=O)c3ccccc32)CC1
2.47 µM	COc1ccc(CCn2cnc3c([nH]c4ccccc43)c2=O)cc1
> 50 µM (inactive)	O=C(COc1nsnc1N1CCOCC1)Nc1ccccc1F
17.5 µM	COc1ccc(OC)c(NC(=O)C2=C(C)Nc3ncnn3C2c2ccccc2OCc2ccc(C)cc2)c1 (stereo not drawn)

IC50	SMILES
> 50 µM (inactive)	CC(C)(C)n1ncc2c(=O)n(Cc3cccc([N+](=O)[O-])c3)cnc21
3.6 µM	CC(C)NC(=O)Cn1ccn2nc(-c3ccc(Cl)cc3)cc2c1=O
28.4 µM	COc1ccccc1CC(=O)Nc1nc2ccccc2[nH]1
35.1 µM	Cc1ccc2c(c1)[C@]1(C(=O)N2)[C@@H](C(=O)c2ccccc2)[C@]2(C(=O)Nc3ccccc32)[C@@H]2CCCN21
1.74 µM	Cc1ccc(NC(=O)c2sc(=S)n(CCc3ccccc3)c2N)cc1
> 50 µM (inactive)	Cc1cnc(CN2CCCC(c3ccc4cn[nH]c4n3)C2)cn1 (stereo not drawn)
7.66 µM	Fc1cc(F)c2[nH]cc(-c3nnnn3-c3ccc4ccccc4c3)c2c1
3.39 µM	CCOc1ccc(NC(=O)Cn2c(=O)n(CCC(=O)NCc3ccccc3OC)c(=O)c3ccccc32)cc1
27.3 µM	Cn1c2ccccc2c2ncn(Cc3ccc(F)cc3)c(=O)c21
> 50 µM (inactive)	CCCc1nc2sc3c(NCCN4CCOCC4)ncnc3c2c2c1CCC2
> 50 µM (inactive)	O=C(NCc1ccc(F)cc1)C1CCCN(c2cnc3nccnc3c2)C1 (stereo not drawn)
> 50 µM (inactive)	O=C(O)c1nccnc1C(=O)N1CCc2ccccc2C1
> 50 µM (inactive)	COc1ccc(NC(=O)c2nnn(-c3ccccc3)c2C)cc1OC
33.2 µM	O=C(c1cc(-c2ccncc2)n[nH]1)N1CCC(C(=O)N2CC=C(c3ccccc3)CC2)CC1
> 50 µM (inactive)	CCCc1nc2sc3c(N(CC)CC)ncnc3c2c2c1CCC2
> 50 µM (inactive)	C/C1=C/CC(O)/C=C/C(C)C(O)C(C)/C=C(\C)C(=O)c2c(O)c(C)cc3c2C(=O)C(Cl)=C(NC(=O)\C=C/C=C/C=C\C(C)C(O)CC1=O)C3=O (stereo not drawn)
> 50 µM (inactive)	CCc1ccc(C(C)NC(=O)C2CCN(c3ccc4nncn4n3)CC2)cc1 (stereo not drawn)
> 50 µM (inactive)	COc1ccc(CCNC(=O)c2ccc3ccccc3c2)cc1OC
> 50 µM (inactive)	O=C(CCc1nnc2n(Cc3ccc(F)cc3)c(=O)c3ccccc3n12)N1CCN(c2ccccn2)CC1
> 50 µM (inactive)	CC(C)(C)C(=O)C1C2C(=O)N(Cc3ccccc3)C(=O)C2C2c3ccccc3C=CN12 (stereo not drawn)
34.1 µM	CCCC(=O)Nc1nc2ccc(CCC(=O)NCc3ccc(F)cc3)cc2s1
> 50 µM (inactive)	Cc1cc(=O)c2c(O)oc(O)c3c(O)cc(=O)c1c32
> 50 µM (inactive)	Cc1cccc(NC(=O)c2ccn(COc3ccc(F)cc3F)n2)c1C
> 50 µM (inactive)	C=C(NC(=O)C(=C)NC(=O)c1csc(C2=N[C@@H]3c4csc(n4)[C@H]4NC(=O)c5csc(n5)[C@H]([C@](C)(O)[C@@H](C)O)NC(=O)C5CSC(=N5)/C(=C/C)NC(=O)C([C@@H](C)O)NC(=O)c5csc(n5)[C@]3(CC2)NC(=O)[C@H](C)NC(=O)C(=C)NC(=O)[C@H](C)NC(=O)C([C@@H](C)CC)NC2C=Cc3c(C(C)O)cc(nc3[C@H]2O)C(=O)OC4C)n1)C(N)=O (stereo partly drawn)

Second part, the compound before the results:

SMILES	IC50
O=C(Nc1ccc(Cl)cc1F)c1cc(-c2ccccn2)n[nH]1	0.445 µM
COC(=O)c1ccc2c(=O)n(CCCCCC(=O)NCc3cccc(Cl)c3)c(=O)[nH]c2c1	1.69 µM
O=C(Cn1cncc(-c2nc(-c3ccccc3)cs2)c1=O)NC1CCCC1	34.5 µM
Cn1cc(-c2cnc(-c3cccc(F)c3)nc2)cc1C(=O)NCc1cccnc1	30.7 µM
Cc1ccc(NC(=O)CNC(=O)c2cc3ccccc3o2)cc1	17.7 µM
Cc1ccc2c(c1)N(C)C(=O)c1cc(NC(=O)c3ccc(F)cc3)ccc1O2	2.71 µM
CC1=C(C)C(c2c(-c3ccc(C)cc3)[nH]c3ccccc23)N(C(C)(C)C)C1=O (stereo not drawn)	1.85 µM
Cc1cc(C)cc(-n2cnc3cc(C(=O)NCCC4=CCCCC4)ccc32)c1	> 50 µM (inactive)
CN1c2ccccc2CN(CC(N)=O)CC1Cc1ccccc1 (stereo not drawn)	> 50 µM (inactive)
Cc1nn(CC(=O)Nc2ccc(Br)c3cccnc23)c(=O)c2ccccc12	> 5 µM (inactive)
Cc1nc2cccnc2n1C1CCN(C(=O)c2cc3cc(Cl)ccc3[nH]2)C1 (stereo not drawn)	> 50 µM (inactive)
COc1ccc(-c2nc(SCC(=O)Nc3ccc(C(C)=O)cc3)n[nH]2)cc1	11.1 µM
O=C(CN1C(=O)C2CCCC2=Nc2ccccc21)Nc1ccc(F)cc1F (stereo not drawn)	36.4 µM
CCOc1ccc2c(c1)c(=O)c(C(=O)c1ccccc1)cn2CC(=O)Nc1ccccc1	4.27 µM
O=C(Nc1ccc(-c2cn3ccccc3n2)cc1)C1C=C2C=C(Br)C=CC2OC1=O (stereo not drawn)	0.337 µM
CCCCc1nc2sc3c(SCC(=O)NCc4ccccc4)ncnc3c2c2c1CCC2	> 50 µM (inactive)
Cc1cccc(O)c1-c1nc2c(-c3nc4c(C(=O)O)cccc4o3)cccc2o1	> 50 µM (inactive)
COc1c(C)c(C(O)C(C)O)c2[nH]c3ccc(CC=C(C)C)cc3c2c1O (stereo not drawn)	27.4 µM
CC(C)(C)C(=O)[C@@H]1[C@@H](C(=O)c2ccc3c(c2)OCO3)[C@@]2(C(=O)Nc3ccccc32)[C@H]2c3ccccc3C=CN12	> 50 µM (inactive)
COc1ccc(CCNC(=O)c2cc3ccccc3s2)cc1OC	> 50 µM (inactive)

SMILES	IC50
CCOc1ccccc1NC(=O)Cn1c(-c2ccc3c(c2)OCO3)cn(-c2ccc(OC)cc2)c1=O	> 50 µM (inactive)
CC1OC(CC(=O)O)CC23OC12C(=O)c1c(O)cccc1C3=O (stereo not drawn)	> 50 µM (inactive)
Cc1nc2ccccn2c1C1(O)C(=O)Nc2c(Cl)cc(Cl)cc21 (stereo not drawn)	> 50 µM (inactive)
O=C(Cn1c(-c2ccccc2)ncc(C(=O)NC2CC2)c1=O)Nc1ccccc1	14.4 µM
O=C1c2ccccc2NC2(C(=O)Nc3ccc(Br)cc32)N1c1ccccc1 (stereo not drawn)	> 50 µM (inactive)
COCCNC(=O)c1ccn(-c2ccc3ccc(-c4ccncc4)cn23)n1	> 50 µM (inactive)
CC(C)(C)c1ccc(Cn2nnc3c(=O)[nH]c(C4CCN(S(=O)(=O)c5ccc(S(=O)(=O)NC6CC6)cc5)CC4)nc32)cc1	48.7 µM
COc1cc([C@@H]2c3cc4c(cc3C[C@@H]3COC(=O)[C@H]32)OCO4)cc(OC)c1OC	18.7 µM
Cc1ccc(NC(=O)c2ccc(N3CCOCC3)nn2)cc1F	39.7 µM
CCc1nc(SCC(=O)Nc2ccccc2Cl)c2oc3ccccc3c2n1	< 0.05 µM
COc1ccc(OC)c(-c2cn3ccn(-c4ccc5c(c4)CCC5)c(=O)c3n2)c1	> 50 µM (inactive)
CN1C(=O)[C@@]23C[C@]4([C@@]56C[C@]78SS[C@](CO)(C(=O)N7[C@@H]5Nc5ccccc56)N(C)C8=O)c5ccccc5N[C@@H]4N2C(=O)[C@]1(CO)SS3	0.266 µM
COc1ccc(NC(=O)c2nnn(-c3ccccc3C)c2C)cc1OC	> 50 µM (inactive)
CCOc1ccccc1NC(=O)Cn1c(=O)n(CCCC(=O)NCc2ccc(C)cc2)c(=O)c2sccc21	2.53 µM
Cc1cc(C)cc(NC(=O)CSc2ccc(-c3ccncc3)nn2)c1	34.6 µM
O=S(=O)(Nc1ccc(O)cc1)c1ccc2oc3ccc(S(=O)(=O)Nc4ccc(O)cc4)cc3c2c1	26.5 µM
CC(=O)c1ccccc1NC(=O)COc1ccc(-c2ccc(C#N)cc2)cc1	2.51 µM
Cc1ccccc1NC(=O)c1cc(S(=O)(=O)N2CCCCCC2)ccc1Cl	23.8 µM
O=C(CN(Cc1ccc(Cl)cc1)S(=O)(=O)c1ccc(Cl)cc1)N1CCOCC1	> 50 µM (inactive)
O=c1c(OC2O[C@H](CO)[C@H](O)[C@H](O)[C@H]2O)c(-c2ccc(O)cc2)oc2cc(O)cc(O)c12 (stereo partly drawn)	> 50 µM (inactive)
